# From ChEMBL document CHEMBL4725294, “Centrally Active Multitarget Anti-Alzheimer Agents Derived from the Antioxidant Lead CR-6” (J Med Chem, 2020)
# Active and inactive are the calls of the source. The calls are words filed in the database; no cut-off is given here.
# Columns and labels:
# Cholinesterase [1] = target: T1, Cholinesterase (Homo sapiens, UniProt P06276)
# Description: (§1) Inhibition of recombinant human BChE using butyrylthiocholine iodide as substrate preincubated for 15 mins followed by substrate addition by Ellman's method
# Beta-secretase 1 [2] = target: T2, Beta-secretase 1 (Homo sapiens, UniProt P56817); assay: Inhibition human BACE1 expressed in baculovirus expression system at 5 uM using Panvera peptide as substrate measured after 60 mins by fluorescence assay relative to control; conditions: 1 h; for inhibition (INH): 5 µM
# Beta-secretase 1 [3] = target: T2, Beta-secretase 1; assay: Inhibition human BACE1 expressed in baculovirus expression system using Panvera peptide as substrate measured after 60 mins by fluorescence assay
# Acetylcholinesterase [4] = target: T3, Acetylcholinesterase (Homo sapiens, UniProt P22303)
# Description: (§2) Inhibition of recombinant human AChE expressed in HEK293 cells using acetylthiocholine iodide as substrate preincubated for 15 mins followed by substrate addition by Ellman's method
# Acetylcholinesterase [5] = target: T3, Acetylcholinesterase; assay: Potency index, ratio of tacrine IC50 to test compound IC50 for recombinant human AChE expressed in HEK293 cells; type: cell-based
# Cholinesterase [6] = target: T1, Cholinesterase; assay: Potency index, ratio of tacrine IC50 to test compound IC50 for recombinant human BChE
# in vitro = conditions: PAMPA
# Description: Permeability of compound in PBS/EtOH buffer (7:3) PAMPA-BBB assay
# [7] = Drug level in rat liver microsomes treated with N-{8-[(6-Chloro-1,2,3,4-tetrahydroacridin-9-yl)amino]octyl}-2-(6-hydroxy-7-methoxy-2-methylchroman-2-yl)acetamide at 5 uM measured up to 60 mins by UPLC-MS/MS analysis; type: ADME, Microsome; conditions: 1 h
# [8] = Drug level in human liver microsomes treated with N-{8-[(6-Chloro-1,2,3,4-tetrahydroacridin-9-yl)amino]octyl}-2-(6-hydroxy-7-methoxy-2-methylchroman-2-yl)acetamide at 5 uM measured up to 60 mins by UPLC-MS/MS analysis; type: ADME, Microsome; conditions: 1 h
# [9] = Drug level in mouse liver microsomes treated with N-{8-[(6-Chloro-1,2,3,4-tetrahydroacridin-9-yl)amino]octyl}-2-(6-hydroxy-7-methoxy-2-methylchroman-2-yl)acetamide at 5 uM measured up to 60 mins by UPLC-MS/MS analysis; type: ADME, Microsome; conditions: 1 h
# Acetylcholinesterase [10] = target: Acetylcholinesterase (Electrophorus electricus, UniProt O42275); assay: Displacement of propidium iodide from PAS region of electric eel AChE by fluorescence assay
# Acetylcholinesterase [11] = target: T3, Acetylcholinesterase; assay: Mixed inhibition of recombinant human AChE expressed in HEK293 cells assessed as dissociation constant for enzyme-inhibitor complex using varying levels of acetylthiocholine iodide as substrate preincubated for 15 mins followed by substrate addition by Line-weaver Burk plot analysis
# Acetylcholinesterase [12] = target: T3, Acetylcholinesterase; assay: Mixed inhibition of recombinant human AChE expressed in HEK293 cells assessed as dissociation constant for enzyme-substrate-inhibitor complex using varying levels of acetylthiocholine iodide as substrate preincubated for 15 mins followed by substrate addition by Line-weaver Burk plot analysis
# Cholinesterase [13] = target: T1, Cholinesterase; assay: Inhibition of recombinant human BChE at 100 uM using butyrylthiocholine iodide as substrate preincubated for 15 mins followed by substrate addition by Ellman's method
# Acetylcholinesterase [14] = target: T3, Acetylcholinesterase; assay: Inhibition of recombinant human AChE expressed in HEK293 cells at 100 uM using acetylthiocholine iodide as substrate preincubated for 15 mins followed by substrate addition by Ellman's method
# Cholinesterase [15] = target: T1, Cholinesterase; remark: listed apart in the source
# Description: as §1
# Acetylcholinesterase [16] = target: T3, Acetylcholinesterase; conditions: hek293
# Description: as §2
# T2 sequence (P56817 whole entry): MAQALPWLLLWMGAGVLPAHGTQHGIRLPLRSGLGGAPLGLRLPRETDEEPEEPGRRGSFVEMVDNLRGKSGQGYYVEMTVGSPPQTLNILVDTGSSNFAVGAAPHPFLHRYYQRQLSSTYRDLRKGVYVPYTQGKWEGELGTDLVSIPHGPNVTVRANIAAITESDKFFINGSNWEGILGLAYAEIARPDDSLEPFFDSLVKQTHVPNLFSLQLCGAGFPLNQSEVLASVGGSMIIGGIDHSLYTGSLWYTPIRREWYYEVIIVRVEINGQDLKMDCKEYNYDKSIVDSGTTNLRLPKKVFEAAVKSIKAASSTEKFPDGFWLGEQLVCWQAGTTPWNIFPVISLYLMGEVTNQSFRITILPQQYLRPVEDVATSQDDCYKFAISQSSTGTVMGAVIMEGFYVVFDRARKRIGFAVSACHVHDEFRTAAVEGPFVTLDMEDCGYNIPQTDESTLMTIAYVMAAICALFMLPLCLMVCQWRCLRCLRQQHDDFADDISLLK
# T3 sequence (P22303 whole entry): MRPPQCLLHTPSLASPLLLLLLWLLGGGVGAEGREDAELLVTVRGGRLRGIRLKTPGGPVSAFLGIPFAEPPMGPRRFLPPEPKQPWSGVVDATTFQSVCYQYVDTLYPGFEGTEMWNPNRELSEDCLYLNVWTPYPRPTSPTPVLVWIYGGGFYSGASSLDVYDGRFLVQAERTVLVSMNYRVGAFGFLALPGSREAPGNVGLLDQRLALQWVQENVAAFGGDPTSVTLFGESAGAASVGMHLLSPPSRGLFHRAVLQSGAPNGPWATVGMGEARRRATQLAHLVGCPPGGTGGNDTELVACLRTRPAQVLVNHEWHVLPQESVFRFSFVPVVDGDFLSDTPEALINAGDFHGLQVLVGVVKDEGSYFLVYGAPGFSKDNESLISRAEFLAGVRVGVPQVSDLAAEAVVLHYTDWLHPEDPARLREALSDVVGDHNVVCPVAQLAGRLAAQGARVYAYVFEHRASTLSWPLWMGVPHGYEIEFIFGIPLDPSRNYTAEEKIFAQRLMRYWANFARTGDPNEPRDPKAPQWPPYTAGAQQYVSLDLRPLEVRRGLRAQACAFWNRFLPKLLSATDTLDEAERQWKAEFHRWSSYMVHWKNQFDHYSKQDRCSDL
# T1 sequence (P06276 whole entry): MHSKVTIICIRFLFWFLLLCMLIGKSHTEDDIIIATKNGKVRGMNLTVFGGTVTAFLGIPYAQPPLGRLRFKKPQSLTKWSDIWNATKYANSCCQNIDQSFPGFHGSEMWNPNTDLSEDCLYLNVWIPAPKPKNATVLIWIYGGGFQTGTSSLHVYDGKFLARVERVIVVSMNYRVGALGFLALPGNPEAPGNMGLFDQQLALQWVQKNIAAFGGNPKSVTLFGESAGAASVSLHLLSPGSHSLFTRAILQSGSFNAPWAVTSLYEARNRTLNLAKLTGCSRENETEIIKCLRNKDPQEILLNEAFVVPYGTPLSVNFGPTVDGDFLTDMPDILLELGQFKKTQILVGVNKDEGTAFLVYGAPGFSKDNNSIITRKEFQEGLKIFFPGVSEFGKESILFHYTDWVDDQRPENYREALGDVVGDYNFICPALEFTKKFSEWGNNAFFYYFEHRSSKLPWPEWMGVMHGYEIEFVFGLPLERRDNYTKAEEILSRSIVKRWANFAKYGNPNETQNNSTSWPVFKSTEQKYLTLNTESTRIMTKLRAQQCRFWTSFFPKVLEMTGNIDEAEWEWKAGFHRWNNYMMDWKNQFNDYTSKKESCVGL
# Sequence of Acetylcholinesterase (Electrophorus electricus, UniProt O42275) (O42275 whole entry): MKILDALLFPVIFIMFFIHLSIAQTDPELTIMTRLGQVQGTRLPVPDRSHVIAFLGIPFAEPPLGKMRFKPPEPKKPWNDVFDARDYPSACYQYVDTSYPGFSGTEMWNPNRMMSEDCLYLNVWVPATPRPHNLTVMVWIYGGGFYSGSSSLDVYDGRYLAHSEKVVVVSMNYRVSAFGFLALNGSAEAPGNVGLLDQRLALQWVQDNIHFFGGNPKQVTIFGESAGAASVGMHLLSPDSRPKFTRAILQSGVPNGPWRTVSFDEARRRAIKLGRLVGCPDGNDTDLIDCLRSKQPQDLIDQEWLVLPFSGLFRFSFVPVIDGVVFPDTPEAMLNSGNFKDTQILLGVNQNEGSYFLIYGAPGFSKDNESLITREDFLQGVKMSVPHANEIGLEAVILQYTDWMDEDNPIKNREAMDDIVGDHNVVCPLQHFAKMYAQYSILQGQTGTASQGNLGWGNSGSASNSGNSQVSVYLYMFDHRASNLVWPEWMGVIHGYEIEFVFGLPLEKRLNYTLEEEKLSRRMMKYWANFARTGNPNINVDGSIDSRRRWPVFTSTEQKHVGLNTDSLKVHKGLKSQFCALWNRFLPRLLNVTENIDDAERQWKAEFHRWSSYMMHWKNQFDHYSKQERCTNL
Compound,IC50 (Cholinesterase [1]) [nM],inhibition (INH) (Beta-secretase 1 [2]),IC50 (Beta-secretase 1 [3]),IC50 (Acetylcholinesterase [4]) [nM],Ratio IC50 (Cholinesterase [6]),Papp (in vitro) [×10⁻⁶ cm/s],other results
COc1cc2c(cc1O)CCC(C)(CC(=O)NCCCCCCNc1c3c(nc4ccccc14)CCCC3)O2 (configuration not stated),4.99,Not Active,Not Active,275,7,4.3,Ratio IC50 (Acetylcholinesterase [5]): < 5
COc1cc2c(cc1O)CCC(C)(CC(=O)NCCCCCCCCCNc1c3c(nc4ccccc14)CCCC3)O2 (configuration not stated),5.36,,,57.8,7,8.9,inhibition at 5 µM (Beta-secretase 1 [2]): 6.75%; Ratio IC50 (Acetylcholinesterase [5]): < 5
COc1cc(O)c(CCC(C)(O)CC(=O)NCCCCCCCCNc2c3c(nc4cc(Cl)ccc24)CCCC3)cc1O (configuration not stated),,,,,,,Drug metabolism [7]: Metabolite_Detected; Drug metabolism [8]: Metabolite_Detected; Drug metabolism [9]: Metabolite_Detected
COc1cc2c(cc1O)CCC(C)(CCNCCCCCCCCNc1c3c(nc4cc(Cl)ccc14)CCCC3)O2 (configuration not stated),13.4,,,0.12,2,12.5,Kd (Acetylcholinesterase [10]): 2030 nM; inhibition at 5 µM (Beta-secretase 1 [2]): 24.8%; Ki (Acetylcholinesterase [11]): 0.132 nM; Ki (Acetylcholinesterase [12]): 0.258 nM
COC1=CC(=O)C2(CCC(C)(CC(=O)NCCCCCCCCNc3c4c(nc5cc(Cl)ccc35)CCCC4)O2)CC1=O (configuration not stated),,,,,,,Drug metabolism [7]: Metabolite_Detected; Drug metabolism [8]: Metabolite_Detected; Drug metabolism [9]: Metabolite_Detected
COC1=CC(=O)C(CCC(C)(O)CC(=O)NCCCCCCCCNc2c3c(nc4cc(Cl)ccc24)CCCC3)=CC1=O (configuration not stated),,,,,,,Drug metabolism [7]: Metabolite_Detected; Drug metabolism [8]: Metabolite_Detected; Drug metabolism [9]: Metabolite_Detected
COc1cc2c(cc1O)CCC(C)(CC(=O)NCCCCCCCCCNc1c3c(nc4cc(Cl)ccc14)CCCC3)O2 (configuration not stated),168,Not Active,Not Active,2.05,,8.2,
COc1cc2c(cc1O)CCC(C)(CCN)O2 (configuration not stated),23200,,,101000,,1,inhibition (Cholinesterase [13]): inactive; inhibition (Acetylcholinesterase [14]): inactive
COc1cc2c(cc1O)CCC(C)(CCC(=O)NCCCCCCCNc1c3c(nc4cc(Cl)ccc14)CCCC3)O2 (configuration not stated),187,,,7.94,,8.3,inhibition at 5 µM (Beta-secretase 1 [2]): 14%
COc1cc2c(cc1OCc1ccccc1)CCC(C)(CC(=O)NCCCCCCCNc1c3c(nc4cc(Cl)ccc14)CCCC3)O2 (configuration not stated),51,,,6.99,,11.5,IC50 (Beta-secretase 1 [3]; read-out: IC50): 12500 nM
COc1cc2c(cc1O)CCC(C)(CCNCCOCCOCCNc1c3c(nc4cc(Cl)ccc14)CCCC3)O2 (configuration not stated),180,,,8.35,,9.7,inhibition at 5 µM (Beta-secretase 1 [2]): 19.9%
COc1cc2c(cc1O)CCC(C)(CC(=O)NCCCCCCCNc1c3c(nc4cc(Cl)ccc14)CCCC3)O2 (configuration not stated),79.1,Not Active,Not Active,5.43,,9.7,
COc1cc2c(cc1OCc1ccccc1)CCC(C)(CC(=O)NCCCCCCCCCNc1c3c(nc4cc(Cl)ccc14)CCCC3)O2 (configuration not stated),30.6,,,7.89,,10.4,IC50 (Beta-secretase 1 [3]; read-out: IC50): 7190 nM
COc1cc2c(cc1O)CCC(C)(CC(=O)NCCCCCCCNc1c3c(nc4ccccc14)CCCC3)O2 (configuration not stated),4.28,Not Active,Not Active,111,7,6.6,Ratio IC50 (Acetylcholinesterase [5]): < 5
COc1cc2c(cc1O)CCC(C)(CC(=O)O)O2 (configuration not stated),,,,,,0.4,IC50 (Cholinesterase [15]): Not Active; IC50 (Acetylcholinesterase [16]): Not Active
COc1cc2c(cc1O)CCC(C)(CCC(=O)NCCCCCCCCNc1c3c(nc4cc(Cl)ccc14)CCCC3)O2 (configuration not stated),148,Not Active,Not Active,6.23,,8.7,
COc1cc2c(cc1OCc1ccccc1)CCC(C)(CC(=O)NCCCCCCNc1c3c(nc4cc(Cl)ccc14)CCCC3)O2 (configuration not stated),201,,,11,,10.7,IC50 (Beta-secretase 1 [3]; read-out: IC50): 18000 nM
COc1cc2c(cc1O)CCC(C)(CCNCCCCCCCNc1c3c(nc4cc(Cl)ccc14)CCCC3)O2 (configuration not stated),17.4,Not Active,Not Active,0.44,2,10.3,
COc1cc2c(cc1O)CCC(C)(CC(=O)NCCCCCCCCNc1c3c(nc4ccccc14)CCCC3)O2 (configuration not stated),5.33,Not Active,Not Active,69.8,7,7.3,Ratio IC50 (Acetylcholinesterase [5]): < 5
COc1cc2c(cc1O)CCC(C)(CC(=O)NCCOCCOCCNc1c3c(nc4cc(Cl)ccc14)CCCC3)O2 (configuration not stated),1840,Not Active,Not Active,47.9,,7,
Nc1c2c(nc3cc(Cl)ccc13)CCCC2,,,,,,26.1,Drug metabolism [7]: Metabolite_Detected; Drug metabolism [8]: Metabolite_Detected; Drug metabolism [9]: Metabolite_Detected
COc1cc2c(cc1O)CCC(C)(CCNCCCCCCCCCNc1c3c(nc4cc(Cl)ccc14)CCCC3)O2 (configuration not stated),18.3,,,0.27,2,10.1,inhibition at 5 µM (Beta-secretase 1 [2]): 28.1%
COc1cc2c(cc1O)CCC(C)(CCC(=O)NCCCCCCNc1c3c(nc4cc(Cl)ccc14)CCCC3)O2 (configuration not stated),102,Not Active,Not Active,3.8,,7.8,
